Assay results reported in ChEMBL document CHEMBL3044701, “Synthesis, characterization and biological activity of Schiff bases derived from metronidazole” (Med Chem Res, 2012).
In brackets after ≈: the same amount, converted by molar mass. Activity calls are given as the source filed them. The calls are words filed in the database; no cut-off is given here.

Each compound was assayed on Clostridium sporogenes (assay: Antibacterial activity against Clostridium sporogenes ATCC 19404 after 24 hr by broth microdilution method). Details: ATCC 19404, 24 h.
Assay type: functional

**Q.** With Cc1ncc([N+](=O)[O-])n1CC/N=C/c1ccc([N+](=O)[O-])cc1 as the compound, how does the MIC read?
**A.** 257 µM (≈ 77.9 µg/mL)

**Q.** With Cc1ncc([N+](=O)[O-])n1CC/N=C/c1cccs1 as the compound, how does the MIC read?
**A.** 369 µM (≈ 97.5 µg/mL)

**Q.** With Cc1ncc([N+](=O)[O-])n1CCO [METRONIDAZOLE] as the compound, how does the MIC read?
**A.** 45.6 µM (≈ 7.8 µg/mL)

**Q.** For Cc1ncc([N+](=O)[O-])n1CC/N=C/c1ccco1, which MIC is on record?
**A.** 236 µM (≈ 58.6 µg/mL)

**Q.** For Cc1ncc([N+](=O)[O-])n1CC/N=C/c1cc(Cl)ccc1O, which MIC is on record?
**A.** 1010 µM (≈ 313 µg/mL)

**Q.** Which MIC does the source give for Cc1ncc([N+](=O)[O-])n1CC/N=C/c1ccccc1Cl here?
**A.** 267 µM (≈ 78.2 µg/mL)

**Q.** How did the MIC turn out when Cc1ncc([N+](=O)[O-])n1CC/N=C/c1ccc(F)cc1 was run?
**A.** 1130 µM (≈ 313 µg/mL)

**Q.** Which MIC does the source give for COc1ccc(/C=N/CCn2c([N+](=O)[O-])cnc2C)cc1 here?
**A.** 203 µM (≈ 58.5 µg/mL)

**Q.** How did the MIC turn out when Cc1ccc(/C=N/CCn2c([N+](=O)[O-])cnc2C)cc1 was run?
**A.** 1440 µM (≈ 392 µg/mL)

**Q.** How did the MIC turn out when Cc1ncc([N+](=O)[O-])n1CC/N=C/c1ccncc1 was run?
**A.** 376 µM (≈ 97.5 µg/mL)

**Q.** Which MIC does the source give for Cc1ncc([N+](=O)[O-])n1CC/N=C/c1ccccc1O here?
**A.** 285 µM (≈ 78.2 µg/mL)

What follows are compounds tested on Escherichia coli (assay: Antibacterial activity against Escherichia coli ATCC 8739 after 24 hr by broth microdilution method). Details: ATCC 8739, 24 h.
Assay type: functional

**Q.** For CC1(C)S[C@@H]2[C@H](NC(=O)[C@H](N)c3ccccc3)C(=O)N2[C@H]1C(=O)O [AMPICILLIN], which MIC is on record?
**A.** 2.3 µg/mL

Same assay, conditions: ATCC 8739, 24 h, read-out: MIC

**Q.** Cc1ncc([N+](=O)[O-])n1CC/N=C/c1cccs1 was tested. Which MIC did it give?
**A.** 7100 µM

**Q.** With Cc1ncc([N+](=O)[O-])n1CCO [METRONIDAZOLE] as the compound, how does the MIC read?
**A.** 5480 µM

**Q.** With Cc1ncc([N+](=O)[O-])n1CC/N=C/c1ccco1 as the compound, how does the MIC read?
**A.** 8850 µM

**Q.** With Cc1ncc([N+](=O)[O-])n1CC/N=C/c1cc(Cl)ccc1O as the compound, how does the MIC read?
**A.** 760 µM

**Q.** Cc1ncc([N+](=O)[O-])n1CC/N=C/c1ccccc1Cl was tested. Which MIC did it give?
**A.** 2140 µM

**Q.** For Cc1ncc([N+](=O)[O-])n1CC/N=C/c1ccc(F)cc1, which MIC is on record?
**A.** 4300 µM

**Q.** COc1ccc(/C=N/CCn2c([N+](=O)[O-])cnc2C)cc1 was tested. Which MIC did it give?
**A.** 4340 µM

**Q.** With Cc1ccc(/C=N/CCn2c([N+](=O)[O-])cnc2C)cc1 as the compound, how does the MIC read?
**A.** 4370 µM

**Q.** How did the MIC turn out when Cc1ncc([N+](=O)[O-])n1CC/N=C/c1ccncc1 was run?
**A.** 8460 µM

**Q.** With Cc1ncc([N+](=O)[O-])n1CC/N=C/c1ccccc1O as the compound, how does the MIC read?
**A.** 2240 µM

What follows are compounds tested on Escherichia coli (assay: Antibacterial activity against Escherichia coli ATCC 8739 up to 1.25 mg/ml after 24 hr by broth microdilution method). Details: not given.
Assay type: functional, organism-based

**Q.** With Cc1ncc([N+](=O)[O-])n1CC/N=C/c1ccc([N+](=O)[O-])cc1 as the compound, how does the Activity read?
**A.** inactive

The compounds below were run on Candida albicans (assay: Antifungal activity against Candida albicans ATCC 10231 up to 1.25 mg/ml after 24 hr by broth microdilution method). Details: not given.
Assay type: functional, organism-based

**Q.** With Cc1ncc([N+](=O)[O-])n1CCO [METRONIDAZOLE] as the compound, how does the Activity read?
**A.** inactive

**Q.** How did the Activity turn out when Cc1ncc([N+](=O)[O-])n1CC/N=C/c1ccco1 was run?
**A.** inactive

**Q.** For Cc1ncc([N+](=O)[O-])n1CC/N=C/c1ccncc1, which Activity is on record?
**A.** inactive

These compounds were tested on Giardia intestinalis (assay: Ratio of metronidazole IC50 to compound IC50 for Giardia intestinalis). Details: not given.
Assay type: functional, Giardia duodenalis

**Q.** With Cc1ncc([N+](=O)[O-])n1CC/N=C/c1cccs1 as the compound, how does the “Ratio IC50” value read?
**A.** 5

Each compound was assayed on Candida albicans (assay: Antifungal activity against Candida albicans ATCC 10231 after 24 hr by broth microdilution method). Details: ATCC 10231, 24 h.
Assay type: functional

**Q.** For Clc1ccc(COC(Cn2ccnc2)c2ccc(Cl)cc2Cl)c(Cl)c1 (centres undefined) [MICONAZOLE], which MIC is on record?
**A.** 2.9 µg/mL

Same assay, conditions: ATCC 10231, 24 h, read-out: MIC

**Q.** With Cc1ncc([N+](=O)[O-])n1CC/N=C/c1ccc([N+](=O)[O-])cc1 as the compound, how does the MIC read?
**A.** 450 µM

**Q.** With Cc1ncc([N+](=O)[O-])n1CC/N=C/c1cccs1 as the compound, how does the MIC read?
**A.** 2070 µM

**Q.** With Cc1ncc([N+](=O)[O-])n1CC/N=C/c1cc(Cl)ccc1O as the compound, how does the MIC read?
**A.** 440 µM

**Q.** How did the MIC turn out when Cc1ncc([N+](=O)[O-])n1CC/N=C/c1ccccc1Cl was run?
**A.** 170 µM

**Q.** Which MIC does the source give for Cc1ncc([N+](=O)[O-])n1CC/N=C/c1ccc(F)cc1 here?
**A.** 1990 µM

**Q.** COc1ccc(/C=N/CCn2c([N+](=O)[O-])cnc2C)cc1 was tested. Which MIC did it give?
**A.** 340 µM

**Q.** For Cc1ccc(/C=N/CCn2c([N+](=O)[O-])cnc2C)cc1, which MIC is on record?
**A.** 1000 µM

**Q.** For Cc1ncc([N+](=O)[O-])n1CC/N=C/c1ccccc1O, which MIC is on record?
**A.** 360 µM

The compounds below were run on Staphylococcus aureus (assay: Antibacterial activity against Staphylococcus aureus ATCC 6538P up to 1.25 mg/ml after 24 hr by broth microdilution method). Details: not given.
Assay type: functional, organism-based

**Q.** Which Activity does the source give for Cc1ncc([N+](=O)[O-])n1CC/N=C/c1ccc([N+](=O)[O-])cc1 here?
**A.** inactive

These compounds were tested on Giardia intestinalis (assay: Antigiardial activity against Giardia intestinalis WB by trypan blue assay). Details: Giardia duodenalis.
Assay type: functional, organism-based

**Q.** Which IC50 does the source give for Cc1ncc([N+](=O)[O-])n1CC/N=C/c1ccc([N+](=O)[O-])cc1 here?
**A.** 1.83 µM

**Q.** Cc1ncc([N+](=O)[O-])n1CC/N=C/c1cccs1 was tested. Which IC50 did it give?
**A.** 0.83 µM

**Q.** Which IC50 does the source give for Cc1ncc([N+](=O)[O-])n1CCO [METRONIDAZOLE] here?
**A.** 3.74 µM

**Q.** How did the IC50 turn out when Cc1ncc([N+](=O)[O-])n1CC/N=C/c1ccco1 was run?
**A.** 2.78 µM

**Q.** How did the IC50 turn out when Cc1ncc([N+](=O)[O-])n1CC/N=C/c1cc(Cl)ccc1O was run?
**A.** 4.32 µM

**Q.** Cc1ncc([N+](=O)[O-])n1CC/N=C/c1ccccc1Cl was tested. Which IC50 did it give?
**A.** 7.29 µM

**Q.** Which IC50 does the source give for Cc1ncc([N+](=O)[O-])n1CC/N=C/c1ccc(F)cc1 here?
**A.** 2.39 µM

**Q.** Which IC50 does the source give for COc1ccc(/C=N/CCn2c([N+](=O)[O-])cnc2C)cc1 here?
**A.** 2.26 µM

**Q.** Cc1ccc(/C=N/CCn2c([N+](=O)[O-])cnc2C)cc1 was tested. Which IC50 did it give?
**A.** 1.36 µM

**Q.** For Cc1ncc([N+](=O)[O-])n1CC/N=C/c1ccncc1, which IC50 is on record?
**A.** 11.2 µM

**Q.** Which IC50 does the source give for Cc1ncc([N+](=O)[O-])n1CC/N=C/c1ccccc1O here?
**A.** 2.15 µM

The compounds below were run on Staphylococcus aureus (assay: Antibacterial activity against Staphylococcus aureus ATCC 6538P after 24 hr by broth microdilution method). Details: not given.
Assay type: functional

**Q.** For CC1(C)S[C@@H]2[C@H](NC(=O)[C@H](N)c3ccccc3)C(=O)N2[C@H]1C(=O)O [AMPICILLIN], which MIC is on record?
**A.** 0.036 µg/mL

Same assay, conditions: read-out: MIC

**Q.** With Cc1ncc([N+](=O)[O-])n1CC/N=C/c1cccs1 as the compound, how does the MIC read?
**A.** 7100 µM

**Q.** Cc1ncc([N+](=O)[O-])n1CCO [METRONIDAZOLE] was tested. Which MIC did it give?
**A.** 2050 µM

**Q.** Which MIC does the source give for Cc1ncc([N+](=O)[O-])n1CC/N=C/c1ccco1 here?
**A.** 8850 µM

**Q.** For Cc1ncc([N+](=O)[O-])n1CC/N=C/c1cc(Cl)ccc1O, which MIC is on record?
**A.** 760 µM

**Q.** For Cc1ncc([N+](=O)[O-])n1CC/N=C/c1ccccc1Cl, which MIC is on record?
**A.** 2670 µM

**Q.** For Cc1ncc([N+](=O)[O-])n1CC/N=C/c1ccc(F)cc1, which MIC is on record?
**A.** 5090 µM

**Q.** For COc1ccc(/C=N/CCn2c([N+](=O)[O-])cnc2C)cc1, which MIC is on record?
**A.** 4340 µM

**Q.** How did the MIC turn out when Cc1ccc(/C=N/CCn2c([N+](=O)[O-])cnc2C)cc1 was run?
**A.** 6890 µM

**Q.** Cc1ncc([N+](=O)[O-])n1CC/N=C/c1ccncc1 was tested. Which MIC did it give?
**A.** 8460 µM

**Q.** How did the MIC turn out when Cc1ncc([N+](=O)[O-])n1CC/N=C/c1ccccc1O was run?
**A.** 2000 µM
